Test results as given in patent US8278290B2, “Tubulin polymerisation inhibitors” (Biononics Limited, priority 2005, dated 2012).
“And” between values parts separate entries of the source, which are not always exact repeats. Identical values can stand only once.

Assays:
[1] = system: MCF-7, cancer cell line; experiment: MCF-7 growth inhibition (SRB or Sysmex cell counting); type: cell-based; conditions: SRB or CC assay
[2] = system: Human umbilical vein endothelial cells; experiment: Proliferation Assay - activated endothelium (MTT); type: cell-based; conditions: HUVEC, range within which the IC50 value falls, 48 hrs culture, read-out: Inhib activated HUVECs IC50
Procedure: Proliferation Assay—activated endothelium: Human umbilical vein endothelial cells (CC-2519, Clonetics) were plated at 2500 cells/well in EGM2 (CC-3162, Clonetics) in a 96 well plate in triplicate. Cells were cultured overnight at 37° C. 5% CO2. Medium was subsequently replaced with fresh medium including the compound or negative control. Cells were cultured for a period of 48 hrs. An MTT assay was performed to measure changes in cell numbers. Briefly, 20 μl of MTT reagent was added to cells containing 100 μl of EGM2 and incubated at 37° C. for 2 hours. Absorbance was measured at 492 nm.

[3] = concentration required to inhibit net cell growth by 50%
[4] = Homo sapiens, MCF7, concentration required to inhibit net cell growth by 50%

| Compound | IC50 [1, 3] | IC50 [2] | IC50 [1, 4] |
| --- | --- | --- | --- |
| 2-Imidazol-1-yl-7-O-bis-(triethylammonium)phosphate-6-methoxy-3-(3,4,5-trimethoxybenzoyl)-benzo[b]furan [Entry 49] | 1.4 nM and 2.2 nM |  |  |
| COc1ccc(/C=C\c2cc(OC)c(OC)c(OC)c2)cc1O [Entry 1, reference compound] |  | 1 to 10 nM |  |
| COc1cc(C(=O)c2coc3c(O)c(OC)ccc23)cc(OC)c1OC [Entry 7, reference compound] | 31 nM | 10 to 100 nM | 62 nM |
| COc1ccc(-c2oc3c(OP(=O)(O)O)c(OC)ccc3c2C(=O)c2cc(OC)c(OC)c(OC)c2)cc1 [Entry 8, reference compound] | 4.2 nM and 6 nM and 4.7 nM |  | 3.6 nM |
| COc1cc(C(=O)c2coc3c(OP(=O)(O)O)c(OC)ccc23)cc(OC)c1OC [Entry 9, reference compound] | 82 nM |  | 41 nM |
| COc1cc(C(=O)c2c(-c3cnn(C)c3)oc3c(OC(C)C)c(OC)ccc23)cc(OC)c1OC [Entry 13] | 35 nM |  | 48 nM |
| COc1cc(C(=O)c2c(-c3cnn(Cc4ccccc4)c3)oc3c(O)c(OC)ccc23)cc(OC)c1OC [Entry 15] | 3.3 nM |  | 4.1 nM |
| COc1cc(C(=O)c2c(-c3cn[nH]c3)oc3c(O)c(OC)ccc23)cc(OC)c1OC [Entry 16, [7-Hydroxy-6-methoxy-2-(1H-pyrazol-4-yl)-benzofuran-3-yl]-(3,4,5-trimethoxyphenyl)-methanone] | 3.4 nM | 1 to 10 nM | 3 nM |
| COc1ccc2c(C(=O)c3cc(OC)c(OC)c(OC)c3)c(-c3cnn(Cc4ccccc4)c3)oc2c1 [Entry 17, [2-(1-Benzyl-1H-pyrazol-4-yl)-6-methoxy-benzofuran-3-yl]-(3,4,5-trimethoxyphenyl)-methanone] | 83 nM | 100 to 1000 nM | 110 nM |
| COc1ccc2c(C(=O)c3cc(OC)c(OC)c(OC)c3)c(-c3ccsc3)oc2c1 [Entry 18, 2-(3-Thiophenyl)-3-(3,4,5-trimethoxybenzoyl)-6-methoxy-benzo[b]furan] | 22 nM | 10 to 100 nM | 17 nM |
| COc1ccc2c(C(=O)c3cc(OC)c(OC)c(OC)c3)c(-c3cnn(C)c3)[nH]c2c1 [Entry 19, [6-Methoxy-2-(1-methyl-1H-pyrazol-4-yl)-1H-indol-3-yl]-(3,4,5-trimethoxyphenyl)-methanone] |  | 10 to 100 nM | 12 nM |
| COc1cc(C(=O)c2c(-c3cnn(C)c3)oc3c([N+](=O)[O-])c(OC)ccc23)cc(OC)c1OC [Entry 20, [6-Methoxy-7-nitro-2-(1-methyl-1H-pyrazol-4-yl)-benzofuran-3-yl]-(3,4,5-trimethoxyphenyl)-methanone] | 40 nM | 10 to 100 nM | 33 nM |
| COc1cc(C(=O)c2c(-c3cnn(C)c3)oc3c(O)c(OC)ccc23)cc(OC)c1O [Entry 22] | 29 nM |  | 25 nM |
| COc1cc(OC)cc(C(=O)c2c(-c3cnn(C)c3)oc3c(O)c(OC)ccc23)c1 [Entry 24, 2-(4-N-methylpyrazolyl)-3-(3,5-dimethoxybenzoyl)-6-methoxy-7-hydroxy-benzofuran] | 4.4 nM | 1 to 10 nM | 3.3 nM |
| COc1cc(C(=O)c2c(-c3c(C)noc3C)oc3c(O)c(OC)ccc23)cc(OC)c1OC [Entry 25, 2-(3,5-dimethylisoxazol-4-yl)-7-hydroxy-3-(3,4,5-trimethoxy-benzoyl)-6-methoxybenzo[b]furan] | 57 nM | 10 to 100 nM | 68 nM |
| COc1cc(C(=O)c2c(-c3cnn(CC(C)C)c3)oc3c(O)c(OC)ccc23)cc(OC)c1OC [Entry 26, 2-(4-N-isobutyl-pyrazolyl)-7-hydroxy-3-(3,4,5-trimethoxy-benzoyl)-6-methoxy-benzo[b]furan] | 14 nM | 1 to 10 nM | 21 nM |
| COc1cc(C(=O)c2c(-n3ccnc3)oc3c(O)c(OC)ccc23)cc(OC)c1OC [Entry 27, 2-(N-imidazolyl)-7-hydroxy-3-(3,4,5-trimethoxybenzoyl)-6-methoxy-benzo[b]furan] | < 1 nM | 1 to 10 nM | 1.6 nM |
| COc1cc(C(=O)c2c(-c3cccs3)oc3c(O)c(OC)ccc23)cc(OC)c1OC [Entry 28, 7-Hydroxy-2-(2-thiophenyl)-3-(3,4,5-trimethoxybenzoyl)-6-methoxy-benzo[b]furan] |  | 0.1 to 1 nM | < 1 nM |
| COc1ccc2c(C(=O)c3cc(OC)c(OC)c(OC)c3)c(-c3cnn(CC(=O)O)c3)oc2c1 [Entry 29, Sodium {4-[6-Methoxy-3-(3,4,5-trimethoxy-benzoyl)-benzo[b]furan-2-yl]-pyrazol-1-yl}-acetate] | 540 nM | 100 nM | 900 nM |
| CCOC(=O)Cn1cc(-c2oc3cc(OC)ccc3c2C(=O)c2cc(OC)c(OC)c(OC)c2)cn1 [Entry 30, {4-[6-Methoxy-3-(3,4,5-trimethoxy-benzoyl)-benzofuran-2-yl]-pyrazol-1-yl}-acetic acid ethyl ester] | 15 nM | 10 to 100 nM | 29 nM |
| COc1ccc2c(C(=O)c3cc(OC)c(OC)c(OC)c3)c(-c3cnn(CC(N)=O)c3)oc2c1 [Entry 31, 2-{4-[6-Methoxy-3-(3,4,5-trimethoxy-benzoyl)-benzo[b]furan-2-yl]-pyrazol-1-yl}-acetamide] | 4 nM | 1 to 10 nM | 3.8 nM |
| COc1ccc2c(C(=O)c3cc(OC)c(OC)c(OC)c3)c(-c3cn[nH]c3)oc2c1 [Entry 32, 6-Methoxy-2-(1H-pyrazol-4-yl)-3-(3,4,5-trimethoxybenzoyl)benzo[b]furan] | 4 nM | 1 to 10 nM | 3.6 nM |
| COc1cc(C(=O)c2c(-c3cnn(C)c3)oc3c2ccc2ocnc23)cc(OC)c1OC [Entry 33] | 600 nM | 100 to 1000 nM | 540 nM |
| COc1cc(C(=O)c2c(-n3cccn3)oc3c(O)c(OC)ccc23)cc(OC)c1OC [Entry 34, 2-(N-pyrazolyl)-7-hydroxy-3-(3,4,5-trimethoxybenzoyl)-6-methoxy-benzo[b]furan] | 2.4 nM | 100 to 1000 nM | 3.5 nM |
| COc1cc(C(=O)c2c(-n3ccnn3)oc3c(O)c(OC)ccc23)cc(OC)c1OC [Entry 35, 2-(1N-1,2,3-triazolyl)-7-hydroxy-3-(3,4,5-trimethoxybenzoyl)-6-methoxy-benzo[b]furan] |  | 1 to 10 nM |  |
| COc1cc(C(=O)c2c(-c3ccco3)oc3c(OP(=O)(O)O)c(OC)ccc23)cc(OC)c1OC [Entry 47, 7-(O-disodiumphosphate)-2-(2-furyl)-6-methoxy-3-(3,4,5-trimethoxybenzoyl)benzo-[b]furan] | 0.31 nM |  | 0.26 nM |
| COc1cc(C(=O)c2c(-c3nccs3)oc3c(OP(=O)(O)O)c(OC)ccc23)cc(OC)c1OC [Entry 48, 2-(2-Thiazolyl)-7-O-disodiumphosphate-6-methoxy-3-(3,4,5-trimethoxybenzoyl)-benzo[b]furan] | 0.4 nM |  | 0.53 nM |
| COc1cc(C(=O)c2c(-c3cnn(CC(N)=O)c3)oc3c(O)c(OC)ccc23)cc(OC)c1OC [Entry 51, 2-{4-[7-Hydroxy-6-methoxy-3-(3,4,5-trimethoxybenzoyl)-benzofuran-2-yl]-pyrazol-1-yl}-acetamide] |  | 0.1 to 1 nM |  |
